Experiment [1] addresses T1, Phytoene desaturase (OsPDS-His6) (Oryza sativa, UniProt A2XDA1).
T1 construct: gene PDS1
The experiment can be described thus: liposome-based desaturase assay with purified enzyme, competitive inhibition fit against DPQ, HPLC. The class given is biochemical.

Experiment [2] concerns the target T2, Phytoene desaturase (OsPDS-His6) (Oryza sativa, UniProt A2XDA1, R300S).
T2 construct: gene PDS1
The experiment is described as follows: liposome-based desaturase assay with purified mutant, DPQ x NFZ matrix, competitive inhibition fit. The class given is biochemical.

Structures are written as SMILES.

T2 sequence (A2XDA1 88-578 R300S): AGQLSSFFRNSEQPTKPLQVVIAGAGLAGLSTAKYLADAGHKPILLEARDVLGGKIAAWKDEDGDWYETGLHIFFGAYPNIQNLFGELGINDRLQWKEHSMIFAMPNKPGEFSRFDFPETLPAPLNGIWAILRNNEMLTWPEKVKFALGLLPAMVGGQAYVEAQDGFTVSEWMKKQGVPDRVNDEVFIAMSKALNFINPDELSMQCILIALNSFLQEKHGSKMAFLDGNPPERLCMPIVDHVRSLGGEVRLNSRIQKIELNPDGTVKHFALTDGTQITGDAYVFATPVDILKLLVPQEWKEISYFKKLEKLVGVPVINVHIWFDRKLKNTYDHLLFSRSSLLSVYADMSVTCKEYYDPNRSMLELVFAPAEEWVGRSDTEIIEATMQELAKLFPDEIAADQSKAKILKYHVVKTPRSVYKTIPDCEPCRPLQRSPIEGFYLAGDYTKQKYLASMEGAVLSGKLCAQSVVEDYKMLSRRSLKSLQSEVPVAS
T1 sequence (A2XDA1 88-578): as the sequence (A2XDA1 88-578 R300S) above, with S213R counted along it

`CNc1cnn(-c2cccc(C(F)(F)F)c2)c(=O)c1Cl` [NFZ, norflurazon]: the inhibition constant (Ki) (as a rule, a dissociation constant, usually derived from enzyme kinetics or from competition with a known ligand) turned out to be 230 ± 30 µM in experiment [1] and 1.11 ± 0.36 mM in experiment [2].

Source of the values: publication PMC5703498, “Plant-type phytoene desaturase: Functional evaluation of structural implications” (PLoS ONE, 2017).
